Source: US20110086908A9, “USE OF PHOSPHATASE INHIBITORS FOR THE TREATMENT OF NEURODEGENERATIVE DISEASES” (priority 2007, published 2011)
“Also recorded” adds a separate entry of the source.

Columns and labels:
[1] = molecular target: T1, calcineurin (Homo sapiens, UniProt Q08209); assay: Phosphatase activity assay (Biomol Green Assay-Kit), calcineurin; format: biochemical; conditions: 1 nM tautomycin
T1 construct: purchased Biomol
Experimental: (§1) Activity of recombinant PP1 (NEB) and calcineurin (Biomol) was measured with and without 1 nM tautomycin using the Biomol Green Assay-Kit (Biomol) according to manufacturer's instruction.

[2] = system: hippocampal LTP in slices from arcAβ mice and wt littermates; assay: Tautomycin bath application to acute hippocampal slices, LTP measurement (fEPSP recordings); format: cell-based, mouse; conditions: 1 nM tautomycin, at least 1 h before recording
[3] = molecular target: T2, recombinant PP1 (Oryctolagus cuniculus, UniProt P62139); assay: PP1 activity assay (Biomol Green Assay-Kit); format: biochemical; conditions: 1 nM tautomycin
T2 construct: purchased NEB
Experimental: as §1

[4] = system: hippocampal LTP in slices from wildtype, I-1* control and I-1* transgenic mice; assay: Aβ-oligomers bath application to acute hippocampal slices, LTP measurement; format: cell-based, mouse

T2 sequence (P62139 whole entry): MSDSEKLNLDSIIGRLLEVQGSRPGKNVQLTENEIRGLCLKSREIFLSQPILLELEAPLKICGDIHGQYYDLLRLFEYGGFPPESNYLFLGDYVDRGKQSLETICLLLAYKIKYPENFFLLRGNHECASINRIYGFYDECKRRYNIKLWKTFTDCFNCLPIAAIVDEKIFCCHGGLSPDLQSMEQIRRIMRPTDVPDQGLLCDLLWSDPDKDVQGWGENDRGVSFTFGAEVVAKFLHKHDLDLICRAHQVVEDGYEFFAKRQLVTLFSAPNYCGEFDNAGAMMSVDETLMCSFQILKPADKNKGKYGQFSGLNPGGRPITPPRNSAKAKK
T1 sequence (P63098 2-170, other chains not shown): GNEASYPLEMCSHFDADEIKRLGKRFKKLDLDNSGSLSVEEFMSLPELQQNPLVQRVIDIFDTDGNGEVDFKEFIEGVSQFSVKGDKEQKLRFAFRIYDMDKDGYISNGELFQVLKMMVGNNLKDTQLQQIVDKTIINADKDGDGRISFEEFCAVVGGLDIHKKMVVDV

Compound | inhibition at 0.001 µM [1] | inhibition of calcineurin activity (in words) [1] | effect on LTP deficit in slices from arcAβ (tg) mice (in words) ([2]; 3 months old arcAβ mice) | effect on LTP in slices from wt (non-transgenic) mice (in words) ([2]; wt littermates) | inhibition at 0.001 µM [3] | inhibition of recombinant PP1 activity (in words) [3] | effect on LTP in slices from I-1* control mice (in words) ([4]; Aβ-oligomers bath-applied at least 1 h, I-1* littermate controls) | effect on LTP in slices from I-1* transgenic (mutant) mice with reduced PP1 activity (in words) ([4]; Aβ-oligomers bath-applied at least 1 h, I-1* transgenic mice) | effect on LTP in slices from wildtype mice (in words) ([4]; Aβ-oligomers corresponding to 0.5 μM initial peptide, bath-applied at least 1 h)
CO[C@H]([C@H](O)CC(=O)[C@@H](C)[C@@H](O)CC[C@@H](C)[C@@H]1O[C@]2(CC[C@@H](C)[C@H](CC[C@H](C)C(C)=O)O2)CC[C@@H]1C)[C@H](OC(=O)C[C@@H](O)C1=C(C)C(=O)OC1=O)C(C)C [tautomycin] | < 10% | not calcineurin | fully rescued the LTP deficit; also recorded: full rescue of LTP | has no effect | ~90% | specifically inhibits the activity of recombinant PP1 |  |  | 
Aβ-oligomers: oligomers produced from synthetic Aβ 1-42 (Bachem) according to Klein |  |  |  |  |  |  | impair LTP; also recorded: Aβ-oligomers mediated LTP deficit | not in mutant mice; also recorded: failed to inhibit LTP | impair LTP; also recorded: LTP was inhibited
